Assay results: ChEMBL document CHEMBL3785022, “Pharmacokinetics of cyclophosphamide and alkylating activity in man after intravenous and oral administration” (Br J Clin Pharmacol, 1979)

What was measured:
[1] = First order rate constant for slow elimination phase in iv dosed lymphoma patient (6 patients) by two-compartmental open model; conditions: human, in vivo
[2] = Apparent volume of distribution of central compartment in iv dosed lymphoma patient (6 patients) by two-compartmental open model; conditions: human, in vivo
[3] = Apparent volume of distribution during terminal log-linear elimination phase in iv dosed lymphoma patient (6 patients) by two-compartmental open model; conditions: human, in vivo
[4] = Elimination rate constant from central compartment in iv dosed lymphoma patient (6 patients) by two-compartmental open model; conditions: human, in vivo
[5] = Elimination rate constant in po dosed lymphoma patient (7 patients) by one compartment open model; conditions: human, in vivo
[6] = Half life in po dosed lymphoma patient (7 patients) by one compartment open model; conditions: human, in vivo
[7] = Clearance in po dosed lymphoma patient (7 patients) by one compartment open model; conditions: human, in vivo
[8] = Drug excretion in po dosed lymphoma patient (7 patients) assessed as unchanged parent compound in urine; conditions: human
[9] = Renal clearance in lymphoma patient (7 patients); conditions: human, in vivo
[10] = Extraction ratio in lymphoma patient (7 patients); conditions: human, in vivo
[11] = clinical; conditions: human, plasma, iv, 11.3 mg/kg
[12] = clinical; conditions: human, in vivo, iv, 11.3 mg/kg
Description: Elimination rate constant in lymphoma patient at 11.3 mg/kg, iv by one compartment open model

[13] = clinical; conditions: human, in vivo, iv, 11.3 mg/kg; remark: listed apart in the source
Description: Elimination half life in lymphoma patient at 11.3 mg/kg, iv by one compartment open model

[14] = clinical; conditions: human, in vivo, iv, 11.3 mg/kg; remark: listed apart in the source
Description: Volume of distribution in lymphoma patient at 11.3 mg/kg, iv by one compartment open model

[15] = clinical; conditions: human, in vivo, iv, 11.3 mg/kg; remark: listed apart in the source
Description: Clearance in lymphoma patient at 11.3 mg/kg, iv by one compartment open model

Molecule `O=P1(N(CCCl)CCCl)NCCCO1` (stereo not given) [CYCLOPHOSPHAMIDE ANHYDROUS] has a k el [1] of 2.53e-05 s⁻¹, a Vd [2] of 0.38 L/kg and a Vd [3] of 0.71 L/kg. It also gave a k el [4] of 5.56e-05 s⁻¹, a k el [5] of 6.03e-05 s⁻¹ and a half-life [6] of 3.93 h. It also gave a CL/F [7] of 1.55 mL/min/kg, a dose excreted [8] of 1.8% and a CL renal [9] of 0.08 mL/min/kg. It also gave a hepatic extraction ratio [10] of 0.25, a C0 [11] of 12500 ng/mL and a k el [12] of 3e-05 s⁻¹. For the same molecule, the half-life [13] was 6.42 h, the Vd [14] was 0.9 L/kg and the clearance [15] was 1.62 mL/min/kg.
